Experimental data published in ChEMBL document CHEMBL4715815, “Design, synthesis and biological evaluation of 7H-pyrrolo[2,3-d]pyrimidin-4-amine derivatives as selective Btk inhibitors with improved pharmacokinetic properties for the treatment of rheumatoid arthritis” (Eur J Med Chem, 2018).
The source made the active and inactive calls. No cut-off for these calls is given here.

Columns and labels:
[1] = test system: Mus musculus; experiment: Antiarthritic activity in DBA/1J mouse model of collagen-induced arthritis assessed as reduction in paw thickness at 20 mg/kg, po administered for 30 days and measured on day 30; format: functional, organism-based; conditions: time 30.0 day
[2] = molecular target: Ribosomal protein S6 kinase alpha-6 (Homo sapiens, UniProt Q9UK32); experiment: Inhibition of RSK4 (unknown origin)
[3] = Volume of distribution in Sprague-Dawley rat at 3 mg/kg, iv measured up to 24 hrs by LC-MS/MS analysis; format: ADME, organism-based; conditions: in vivo
[4] = molecular target: Tyrosine-protein kinase JAK3 (Homo sapiens, UniProt P52333); experiment: Inhibition of recombinant human JAK3 using Ulight-CAGAGAIETDKEYYTVKD as substrate incubate for 60 mins by LANCE assay
Chain of Tyrosine-protein kinase JAK3 (P52333 whole entry): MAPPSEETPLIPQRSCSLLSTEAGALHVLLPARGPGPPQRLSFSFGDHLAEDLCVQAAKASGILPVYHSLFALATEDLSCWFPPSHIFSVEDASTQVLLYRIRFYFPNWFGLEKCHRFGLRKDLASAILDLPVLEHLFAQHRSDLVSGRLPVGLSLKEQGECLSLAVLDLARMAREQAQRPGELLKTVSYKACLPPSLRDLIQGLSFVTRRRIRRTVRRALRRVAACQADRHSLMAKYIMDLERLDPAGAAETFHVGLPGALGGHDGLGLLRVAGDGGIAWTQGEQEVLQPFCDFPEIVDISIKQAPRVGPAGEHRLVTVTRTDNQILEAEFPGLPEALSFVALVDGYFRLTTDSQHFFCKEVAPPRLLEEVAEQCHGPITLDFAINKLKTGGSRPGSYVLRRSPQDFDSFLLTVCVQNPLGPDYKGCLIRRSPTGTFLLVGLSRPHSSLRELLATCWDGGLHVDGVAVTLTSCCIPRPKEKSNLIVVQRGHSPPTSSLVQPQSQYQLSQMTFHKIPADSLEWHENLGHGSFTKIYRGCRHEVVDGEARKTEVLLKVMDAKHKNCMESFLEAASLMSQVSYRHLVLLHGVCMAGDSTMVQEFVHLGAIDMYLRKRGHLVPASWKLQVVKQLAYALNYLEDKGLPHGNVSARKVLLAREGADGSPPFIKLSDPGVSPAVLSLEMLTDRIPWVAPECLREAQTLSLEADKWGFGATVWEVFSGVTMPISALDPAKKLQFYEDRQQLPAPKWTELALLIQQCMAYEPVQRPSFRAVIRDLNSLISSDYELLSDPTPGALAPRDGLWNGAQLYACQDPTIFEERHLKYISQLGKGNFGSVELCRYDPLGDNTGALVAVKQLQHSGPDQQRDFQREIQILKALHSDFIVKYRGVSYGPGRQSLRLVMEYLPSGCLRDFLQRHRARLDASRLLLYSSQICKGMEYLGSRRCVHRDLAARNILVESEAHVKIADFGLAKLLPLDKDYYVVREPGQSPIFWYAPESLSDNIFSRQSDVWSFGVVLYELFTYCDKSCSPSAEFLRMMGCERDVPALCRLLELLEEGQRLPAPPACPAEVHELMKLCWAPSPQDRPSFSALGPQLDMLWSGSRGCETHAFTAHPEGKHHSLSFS

[5] = molecular target: T1, Tyrosine-protein kinase BTK (Homo sapiens, UniProt Q06187)
T1 sequence (Q06187 whole entry): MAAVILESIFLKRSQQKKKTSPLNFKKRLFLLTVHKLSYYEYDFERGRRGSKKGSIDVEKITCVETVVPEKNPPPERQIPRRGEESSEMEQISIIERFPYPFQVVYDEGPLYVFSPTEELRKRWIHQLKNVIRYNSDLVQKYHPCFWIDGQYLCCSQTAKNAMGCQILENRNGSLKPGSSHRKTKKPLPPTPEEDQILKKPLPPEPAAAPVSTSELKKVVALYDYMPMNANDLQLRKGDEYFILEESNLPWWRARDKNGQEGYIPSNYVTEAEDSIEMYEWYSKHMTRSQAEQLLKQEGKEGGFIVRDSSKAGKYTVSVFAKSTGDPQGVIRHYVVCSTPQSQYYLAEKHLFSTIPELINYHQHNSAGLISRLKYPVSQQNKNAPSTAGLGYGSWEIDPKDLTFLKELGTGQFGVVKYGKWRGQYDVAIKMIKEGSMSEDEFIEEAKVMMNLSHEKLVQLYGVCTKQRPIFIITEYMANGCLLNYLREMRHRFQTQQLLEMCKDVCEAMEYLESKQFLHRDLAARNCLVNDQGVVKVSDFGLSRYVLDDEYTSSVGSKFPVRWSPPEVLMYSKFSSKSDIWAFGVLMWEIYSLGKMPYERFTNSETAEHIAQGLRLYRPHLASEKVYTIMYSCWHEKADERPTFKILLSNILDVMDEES
Description: Reversible inhibition of BTK (unknown origin) assessed as association rate constant by caliper mobility shift assay

[6] = molecular target: Calcium/calmodulin-dependent protein kinase kinase 2 (Homo sapiens, UniProt Q96RR4); experiment: Inhibition of CAMKK2 (unknown origin)
[7] = molecular target: Ribosomal protein S6 kinase alpha-1 (Homo sapiens, UniProt Q15418); experiment: Inhibition of RSK1 (unknown origin)
Chain of Ribosomal protein S6 kinase alpha-1 (Q15418 whole entry): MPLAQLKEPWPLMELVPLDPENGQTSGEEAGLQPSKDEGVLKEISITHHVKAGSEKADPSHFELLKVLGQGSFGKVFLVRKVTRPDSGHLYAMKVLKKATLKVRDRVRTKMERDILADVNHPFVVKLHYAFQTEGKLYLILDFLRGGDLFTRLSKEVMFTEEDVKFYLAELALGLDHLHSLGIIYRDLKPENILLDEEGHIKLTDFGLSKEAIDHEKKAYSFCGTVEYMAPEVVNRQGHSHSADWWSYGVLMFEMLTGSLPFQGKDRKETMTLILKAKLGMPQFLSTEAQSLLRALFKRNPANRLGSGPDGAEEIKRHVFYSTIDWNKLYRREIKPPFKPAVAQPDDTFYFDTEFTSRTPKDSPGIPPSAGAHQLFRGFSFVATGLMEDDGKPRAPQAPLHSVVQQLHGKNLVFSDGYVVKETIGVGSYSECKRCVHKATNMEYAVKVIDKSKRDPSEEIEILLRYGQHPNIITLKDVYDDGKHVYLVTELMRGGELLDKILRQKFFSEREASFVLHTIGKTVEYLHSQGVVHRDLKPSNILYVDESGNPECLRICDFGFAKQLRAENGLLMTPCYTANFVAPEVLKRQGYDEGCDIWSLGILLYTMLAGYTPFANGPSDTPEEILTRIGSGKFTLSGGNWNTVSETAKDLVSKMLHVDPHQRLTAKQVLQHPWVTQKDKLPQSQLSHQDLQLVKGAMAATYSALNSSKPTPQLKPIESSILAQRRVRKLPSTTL

[8] = molecular target: Tyrosine-protein kinase Fyn (Homo sapiens, UniProt P06241); experiment: Inhibition of recombinant human FYN using biotinyl-beta Abeta-Abeta AYQAEENTYDEYEN as substrate incubate for 60 mins by LANCE assay
[9] = molecular target: Calcium/calmodulin-dependent protein kinase kinase 1 (Homo sapiens, UniProt Q8N5S9); experiment: Inhibition of CAMKK1 (unknown origin)
Chain of Calcium/calmodulin-dependent protein kinase kinase 1 (Q8N5S9 whole entry): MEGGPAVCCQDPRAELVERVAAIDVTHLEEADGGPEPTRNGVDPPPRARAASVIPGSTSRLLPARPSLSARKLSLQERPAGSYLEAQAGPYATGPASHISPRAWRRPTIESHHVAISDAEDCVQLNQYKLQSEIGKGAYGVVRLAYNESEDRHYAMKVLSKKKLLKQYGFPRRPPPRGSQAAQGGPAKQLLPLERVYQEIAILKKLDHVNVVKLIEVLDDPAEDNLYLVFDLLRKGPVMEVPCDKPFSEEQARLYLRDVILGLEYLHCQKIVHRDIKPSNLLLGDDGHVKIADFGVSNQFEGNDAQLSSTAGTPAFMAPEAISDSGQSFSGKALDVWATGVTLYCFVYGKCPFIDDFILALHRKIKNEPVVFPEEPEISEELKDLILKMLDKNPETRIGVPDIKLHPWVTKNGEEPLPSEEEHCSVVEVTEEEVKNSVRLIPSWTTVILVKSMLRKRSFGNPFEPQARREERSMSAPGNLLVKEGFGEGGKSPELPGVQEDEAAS

[10] = molecular target: T1, Tyrosine-protein kinase BTK; experiment: Inhibition of BTK in human Raji cells assessed as reduction in BTK Y551 phosphorylation at 0.03 to 10 uM incubated for 1 hr by Western blot analysis; format: cell-based; conditions: dose 0.03-10 µM
[11] = molecular target: Calcium/calmodulin-dependent protein kinase type IV (Homo sapiens, UniProt Q16566); experiment: Inhibition of CAMK4 (unknown origin)
[12] = Inhibition of GSK3alpha/GSK3beta (unknown origin); design: species or system Homo sapiens
[13] = molecular target: Mitogen-activated protein kinase kinase kinase 3 (Homo sapiens, UniProt Q99759); experiment: Inhibition of MEKK3 (unknown origin)
Chain of Mitogen-activated protein kinase kinase kinase 3 (Q99759 whole entry): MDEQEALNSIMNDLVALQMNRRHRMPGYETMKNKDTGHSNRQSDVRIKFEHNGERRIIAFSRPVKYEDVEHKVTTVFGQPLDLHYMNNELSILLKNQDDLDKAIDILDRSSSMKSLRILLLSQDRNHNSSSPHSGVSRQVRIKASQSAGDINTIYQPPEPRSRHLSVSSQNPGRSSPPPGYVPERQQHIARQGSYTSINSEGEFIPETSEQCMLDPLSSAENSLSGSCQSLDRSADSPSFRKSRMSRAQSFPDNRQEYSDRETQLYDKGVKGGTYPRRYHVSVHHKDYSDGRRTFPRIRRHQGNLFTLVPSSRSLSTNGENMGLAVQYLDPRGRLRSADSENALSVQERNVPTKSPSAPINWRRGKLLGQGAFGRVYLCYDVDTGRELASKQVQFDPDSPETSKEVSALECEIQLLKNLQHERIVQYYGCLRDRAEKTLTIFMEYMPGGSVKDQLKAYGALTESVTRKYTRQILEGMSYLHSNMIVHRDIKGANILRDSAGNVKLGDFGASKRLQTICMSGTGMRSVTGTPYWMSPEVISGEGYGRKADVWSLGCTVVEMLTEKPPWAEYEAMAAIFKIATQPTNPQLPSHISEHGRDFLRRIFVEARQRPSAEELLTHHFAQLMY

[14] = molecular target: Ribosomal protein S6 kinase alpha-2 (Homo sapiens, UniProt Q15349); experiment: Inhibition of RSK3 (unknown origin)
[15] = Toxicity in BALB/c mouse assessed as effect on sensitive to light at 2 g/kg, po measured after 7 days of administration; conditions: in vivo, 168 h
[16] = test system: THP-1; experiment: Cytotoxicity against human THP-1 cells assessed as reduction in cell viability incubated for 72 hrs by MTT assay; format: ADME, cell-based; conditions: THP-1, 72 h
[17] = Metabolic stability in dog liver microsomes assessed as intrinsic clearance at 100 uM/L measured upto 90 mins by LC-MS/MS analysis; format: ADME, Canis lupus familiaris, Microsome; conditions: 1.5 h
[18] = molecular target: T1, Tyrosine-protein kinase BTK; experiment: Inhibition of BTK in human Daudi cells assessed as reduction in PLCgamma2 Y1217 phosphorylation at 0.03 to 10 uM incubated for 1 hr by Western blot analysis; format: cell-based; conditions: dose 0.03-10 µM
[19] = molecular target: Tyrosine-protein kinase CSK (Homo sapiens, UniProt P41240); experiment: Inhibition of CSK (unknown origin)
[20] = Toxicity in BALB/c mouse assessed as effect on liver at 2 g/kg, po measured after 7 days of administration by histopathological analysis; conditions: in vivo, 168 h
[21] = Oral bioavailability in Sprague-Dawley rat at 3 mg/kg measured up to 24 hrs by LC-MS/MS analysis; format: ADME, organism-based; conditions: in vivo
[22] = Tmax in Sprague-Dawley rat at 3 mg/kg, iv measured up to 24 hrs by LC-MS/MS analysis; format: ADME, organism-based; conditions: in vivo
[23] = Toxicity in BALB/c mouse assessed as normal behavior at 2 g/kg, po measured after 7 days of administration; conditions: in vivo, 168 h
[24] = molecular target: Tyrosine-protein kinase SYK (Homo sapiens, UniProt P43405); experiment: Inhibition of SYK (unknown origin)
[25] = molecular target: T1, Tyrosine-protein kinase BTK; experiment: Inhibition of BTK in human Daudi cells assessed as reduction in BTK Y223 phosphorylation incubated for 1 hr by Western blot analysis; format: cell-based; conditions: dose 0.03-10 µM
[26] = Metabolic stability in mouse liver microsomes assessed as half life at 100 uM/L measured upto 90 mins by LC-MS/MS analysis; format: ADME, Microsome
[27] = molecular target: Tyrosine-protein kinase Fgr (Homo sapiens, UniProt P09769); experiment: Inhibition of FGR (unknown origin)
Chain of Tyrosine-protein kinase Fgr (P09769 whole entry): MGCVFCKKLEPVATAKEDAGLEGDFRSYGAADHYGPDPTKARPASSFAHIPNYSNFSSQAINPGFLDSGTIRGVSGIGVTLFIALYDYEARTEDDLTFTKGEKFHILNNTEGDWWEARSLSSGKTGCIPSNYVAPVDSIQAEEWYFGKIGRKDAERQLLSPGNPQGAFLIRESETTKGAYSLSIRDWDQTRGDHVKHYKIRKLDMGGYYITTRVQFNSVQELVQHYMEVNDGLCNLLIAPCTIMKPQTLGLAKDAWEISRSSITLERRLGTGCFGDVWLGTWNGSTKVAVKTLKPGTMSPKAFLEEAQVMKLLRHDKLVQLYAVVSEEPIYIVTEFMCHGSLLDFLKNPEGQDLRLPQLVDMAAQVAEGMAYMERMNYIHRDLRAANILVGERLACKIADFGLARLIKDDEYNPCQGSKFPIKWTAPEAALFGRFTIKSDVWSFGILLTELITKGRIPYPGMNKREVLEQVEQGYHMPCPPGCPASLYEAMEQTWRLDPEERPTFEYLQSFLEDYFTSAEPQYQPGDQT

[28] = test system: L02; experiment: Cytotoxicity against human L02 cells assessed as reduction in cell viability incubated for 72 hrs by MTT assay; format: ADME, cell-based; conditions: L02, 72 h
[29] = Clearance in Sprague-Dawley rat at 3 mg/kg, iv measured up to 24 hrs by LC-MS/MS analysis; format: ADME, organism-based; conditions: in vivo
[30] = molecular target: Tyrosine-protein kinase Lyn (Homo sapiens, UniProt P07948); experiment: Inhibition of recombinant human LYN using biotinyl-beta Abeta-Abeta AKVEKIGEGTYGVVYK as substrate incubate for 120 mins by LANCE assay
[31] = Tmax in Sprague-Dawley rat at 3 mg/kg, po measured up to 24 hrs by LC-MS/MS analysis; format: ADME, organism-based; conditions: in vivo
[32] = Volume of distribution in Sprague-Dawley rat at 3 mg/kg, po measured up to 24 hrs by LC-MS/MS analysis; format: ADME, organism-based; conditions: in vivo
[33] = Inhibition of PKC (unknown origin); design: species or system Homo sapiens
[34] = Metabolic stability in monkey liver microsomes assessed as half life at 100 uM/L measured upto 90 mins by LC-MS/MS analysis; format: ADME, Macaca mulatta, Microsome; conditions: rhesus monkey
[35] = Toxicity in BALB/c mouse assessed as effect on spleen at 2 g/kg, po measured after 7 days of administration by histopathological analysis; conditions: in vivo, 168 h
[36] = molecular target: Dual specificity mitogen-activated protein kinase kinase 2 (Homo sapiens, UniProt P36507); experiment: Inhibition of MEK2 (unknown origin)
[37] = molecular target: T1, Tyrosine-protein kinase BTK; experiment: Inhibition of BTK in human U2932 cells assessed as reduction in BTK Y223 phosphorylation incubated for 1 hr by Western blot analysis; format: cell-based; conditions: dose 0.03-10 µM
[38] = molecular target: T1, Tyrosine-protein kinase BTK; experiment: Inhibition of BTK in human Raji cells assessed as reduction in PLCgamma2 Y1217 phosphorylation at 0.03 to 10 uM incubated for 1 hr by Western blot analysis; format: cell-based; conditions: dose 0.03-10 µM
[39] = molecular target: Mitogen-activated protein kinase kinase kinase 2 (Homo sapiens, UniProt Q9Y2U5); experiment: Inhibition of MEKK2 (unknown origin)
Chain of Mitogen-activated protein kinase kinase kinase 2 (Q9Y2U5 whole entry): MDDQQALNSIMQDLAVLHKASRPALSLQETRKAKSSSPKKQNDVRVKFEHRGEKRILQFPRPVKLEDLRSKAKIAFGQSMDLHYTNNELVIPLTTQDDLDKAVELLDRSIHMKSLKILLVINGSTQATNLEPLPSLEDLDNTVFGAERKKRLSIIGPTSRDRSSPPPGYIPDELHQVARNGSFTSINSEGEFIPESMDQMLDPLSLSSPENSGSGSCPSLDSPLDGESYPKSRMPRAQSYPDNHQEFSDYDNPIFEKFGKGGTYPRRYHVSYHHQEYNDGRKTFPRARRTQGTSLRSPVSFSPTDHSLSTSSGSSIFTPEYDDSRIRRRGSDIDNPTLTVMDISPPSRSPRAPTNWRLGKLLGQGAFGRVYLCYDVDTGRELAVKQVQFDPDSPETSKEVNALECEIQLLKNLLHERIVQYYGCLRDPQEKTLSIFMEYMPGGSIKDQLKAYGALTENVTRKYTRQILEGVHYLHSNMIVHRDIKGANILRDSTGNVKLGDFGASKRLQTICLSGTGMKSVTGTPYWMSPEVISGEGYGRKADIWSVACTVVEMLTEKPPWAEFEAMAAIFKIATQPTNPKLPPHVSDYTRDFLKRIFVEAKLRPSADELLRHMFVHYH

[40] = Toxicity in BALB/c mouse assessed as mouse survival at 2 g/kg, po measured after 7 days of administration; conditions: in vivo, 168 h
[41] = test system: HEK293; experiment: Cytotoxicity against human HEK293 cells assessed as reduction in cell viability incubated for 72 hrs by MTT assay; format: ADME, cell-based; conditions: HEK293, 72 h
[42] = molecular target: T1, Tyrosine-protein kinase BTK; experiment: Inhibition of BTK in human Raji cells assessed as reduction in BTK Y223 phosphorylation incubated for 1 hr by Western blot analysis; format: cell-based; conditions: dose 0.03-10 µM

With C=CC(=O)N1CCC(Cn2cc(-c3ccc4c(c3)OCO4)c3c(N)ncnc32)CC1 the Activity [1] was “Active”, the IC50 [2] was over 10 µM and the Vd [3] was 1.21 L/kg. For the same compound, the IC50 [4] was over 10 µM, the Ka [5] was 9630 M⁻¹ s⁻¹ and the IC50 [6] was over 10 µM. It also gave an IC50 [7] of over 10 µM, an IC50 [8] of 1.01 µM and an IC50 [9] of over 10 µM. The inhibition [10] was “inactive”, the IC50 [11] was over 10 µM and the IC50 [12] was over 10 µM. For the same compound, the IC50 [13] was over 10 µM, the IC50 [14] was over 10 µM and the Activity [15] was “Non-Toxic”. For the same compound, the IC50 [16] was 38.9 µM, the CLH [17] was 4.4 µL/min/mg and the inhibition [18] was “Active”. For the same compound, the IC50 [19] was over 10 µM, the Activity [20] was “Non-Toxic” and the bioavailability [21] was 49.1%. The Tmax [22] was 6.6 min, the Activity [23] was “Non-Toxic” and the IC50 [24] was over 10 µM. The inhibition [25] was “Dose-dependent effect”, the half-life at 100 µM [26] was 4.28 h and the IC50 [27] was 0.657 µM. The IC50 [28] was 31.3 µM, the CL [29] was 137 mL/min/kg and the IC50 [30] was 0.259 µM. It also gave a Tmax [31] of 0.96 h, a Vd [32] of 26.15 L/kg and an IC50 [33] of over 10 µM. The half-life at 100 µM [34] was 2.82 h, the Activity [35] was “Non-Toxic” and the IC50 [36] was over 10 µM. The inhibition [37] was “Dose-dependent effect”, the inhibition [38] was “Active” and the IC50 [39] was over 10 µM. For the same compound, the Activity [40] was “Non-Toxic”, the IC50 [41] was 34.2 µM and the inhibition [42] was “Dose-dependent effect”.
